From patent US20210205292A1, “INHIBITORS OF CREB-CBP INTERACTION FOR TREATMENT OF LEUKEMIA” (The Board of Trustees of the Leland Stanford Junior …, priority 2016, published 2021)
pIC50: −log10 of the molar value. Several values for one entry are separate records, joined by “and”; a condition that tells them apart may be missing. Equal values may be shown once.

How the values were obtained:
[1] = biological target: T1, KIX domain of CBP, mutant lacking amino acids 586-602 (GST fusion) (Homo sapiens, UniProt Q92793); experiment: Biacore surface plasmon resonance, binding to KIX deletion mutant versus native KIX; details: 5 μM
T1 construct: spans CBP amino acids 586-666; made in house; host or cells: E. coli BL21(DE3)
Description: KIX domain mutants were created by standard cloning and mutagenesis methods in the pGEX4T3 vector (GE Healthcare Life Sciences). GST-KIX fusion proteins were expressed in BL21(DE3-) cells (New England Biolabs) following induction with 1 mM IPTG for 6 hours at 37 degrees. GST-KIX and its mutants were purified with the B-PER GST Fusion Protein Spin Purification Kit (Thermo Scientific/Pierce). Surface Plasmon Resonance (Biacore) analysis was performed on a GE Biacore 3000 surface plasmon resonance instrument in collaboration with the Stanford Protein and Nucleic Acid (PAN) Facility.
To confirm the binding of Compound A to the KIX domain of CBP, the KIX domain was expressed and purified as a fusion protein with Glutathione-S-Transferase (GST). Binding of Compound A to the KIX domain and two KIX domain mutants in which residues critical for CREB binding were altered or removed (Arg-600 mutated to Alanine or deletion of amino acids 586-602) was determined by Surface Plasmon Resonance (Biacore) analysis (FIG. 1, panel B). Mutation of Arginine-600 to Alanine reduced binding of Compound A by ˜45%, while a KIX domain mutant lacking amino acids 586-602 reduced binding by ˜70%. […] A hypothetical binding model between Compound A and CBP KIX domain is shown (FIG. 1, panel C). […]

[2] = biological target: T2, CREB-CBP binding (KID-KIX) (Homo sapiens, UniProt Q92793); experiment: Split Renilla luciferase complementation assay; format: cell-based; details: 293T cells treated with forskolin; read-out: IC50, inhibition of the interaction between CREB and CBP
T2 construct: the KID and KIX domains were fused to the N- and C-terminal regions of Renilla luciferase, respectively; expressed in transfected cells; host or cells: 293T cells treated with forskolin
Description: KG-1 cell lines were created to express luciferase in a CREB-dependent or non-CREB-dependent fashion using lentiviral gene delivery. Cells were sorted for mCherry expression by flow cytometry and selected with puromycin. Luciferase activity was measured on a […] using the Promega Luciferase Activity Kit (Promega) per manufacturer's instructions following six hours of treatment with Compound A or 0.1% DMSO. The split Renilla luciferase complementation assay has been described previously (Li BX, and Xiao X. Discovery of a small-molecule inhibitor of the KIX-KID interaction. Chembiochem: a European journal of chemical biology. 2009; 10(17):2721-4). In this assay, the KID and KIX domains were fused to the N- and C-terminal regions of Renilla luciferase, respectively. Once KIX binds phosphorylated KID, the Renilla luciferase regions were brought together, resulting in luciferase activity.
To test the ability of Compound A to disrupt CREB-CBP binding in cells, a split Renilla luciferase complementation assay was performed. […] This early timepoint was selected to permit accurate reporter gene activity measurement prior to the onset of anticipated global cell dysfunction or death induced by Compound A. Treatment with 3 μM Compound A reduced luciferase activity by 33.2±7.7% at this timepoint. […] Thus, Compound A inhibits CREB function through disruption of CREB:CBP interaction.

normal bone marrow cells = experiment: Normal bone marrow samples, viability; format: cell-based, human; details: 72 hours
HL-60 cells = experiment: Flow cytometry of apoptosis (c-PARP+, aqua amine+) in HL-60 cells; format: cell-based, human; details: Homo sapiens, 72 hours, 2 mM, read-out: cells apoptotic or non-viable
Description: AML cell lines were purchased from ATCC and maintained with IMDM (Gibco) supplemented with 10% FBS (Fisher Scientific) and 1% PSG (Gibco). Cells were plated at a density of 2-4×10^5 cells/ml, and treated with various doses of Compound A in 0.1% DMSO or 0.1% DMSO alone. Cell counts and viability were determined using the Vi-CELL XR Cell Viability Analyzer (Beckman Coulter). HL-60 and KG-1 cells overexpressing CREB or CBP were generated using lentiviral gene delivery with subsequent puromycin selection and FACs sorting for GFP. CREB knockdown was achieved by infecting cells with a lentivirus expressing the shRNA sequence 5′-[…]-3′ (SEQ ID NO:). For chemotherapy combination experiments, combination index values were calculated using median effects analysis on Calcusyn software. Human patient bone marrow samples were cultured in DMEM plus 20% FBS and 1×PSG, supplemented with recombinant GM-CSF (20 ng/ml), G-CSF (20 ng/ml), SCF (50 ng/ml), IL-3 (20 ng/ml), and IL-6 (10 ng/ml). Cells were plated at a concentration of 1×10^5 cells/ml in a 12-well plate. Vehicle (0.1% DMSO) or Compound A (2 μM) was added for up to 72 hours. All samples contained >85% AML blasts and were not sorted prior to performing experiments. […] Single cell suspensions of bone marrow culture were subsequently analyzed on a D×P10 flow cytometer (Cytek). […]

T2 sequence (Q92793 587-666 limits assumed): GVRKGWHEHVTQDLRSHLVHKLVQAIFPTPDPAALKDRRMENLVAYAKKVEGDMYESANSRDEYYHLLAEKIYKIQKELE
T1 sequence (Q92793 with tags, fused parts or gaps, stated change not applied): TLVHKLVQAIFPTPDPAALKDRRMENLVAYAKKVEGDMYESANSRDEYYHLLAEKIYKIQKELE

`N#Cc1ccc(NC(=O)c2cc3ccccc3cc2O)cc1` [Compound A, N-(4-cyanophenyl)-3-hydroxy-2-naphthamide] was tested, and the “reduction of binding of Compound A by KIX mutant lacking amino acids 586-602” value [1] was ~70%, the pIC50 [2] was ~5.49 and 5.49 and the “viability of normal bone marrow cells” value (normal bone marrow cells) was “did not significantly change”. For the same molecule, the cytotoxicity at 2000 µM (HL-60 cells) was > 95%.
